For assay [1] the following is noted: ref [41],[42], cited from earlier work. The method, then: Table 1 Table summarizing experiments to identify motifs determining insulin-receptor (IR) peptide glycation and whether glycation of IR peptides results in inhibition of insulin binding to these peptides. Specifically, this table provides binding constants glucose binding non-covalently to various insulin receptor (IR) peptides; glycation of the same IR peptides at 20 mM glucose for six days; the | column: Glucose Binding Kd (mM)

The target of assay [2] is T1, insulin-HRP (Homo sapiens, UniProt P01308). The assay can be described thus: Effect of glycation on insulin-HRP binding to IR peptides. The conditions noted are these: for Change of INS-HRP binding to the peptide after glycation: 6-day exposure to 20 mM glucose, triplicate, averaged; for Ins-HRP Binding Inhibition (Glycated): change in Ins-HRP binding at 10 nM after exposure of the peptide to glycating conditions (six days at 20 mM glucose). The method, then:
Insulin receptor peptides (Figure 1) were synthesized by RS Synthesis (Louisville, KY, USA) to at least 95% purity by high pressure liquid chromatography (HPLC) and mass spectrometry. Peptides or recombinant human insulin (rHu) (Lilly, Indianapolis, IN, USA) were dissolved in glucose-free, phenol-red-free, Dulbecco’s modified Eagle growth medium (DMEM) to 1 mg/mL. Stock 2.0 M D-glucose (Sigma-Aldrich, St. Louis, MO, USA) solutions were also made in DMEM. The peptide and glucose stocks were combined to yield final reaction solutions with peptides at 0.1 mg/mL and glucose at […]. Combinations were incubated at 36–38 °C for 1–6 days. Reactions were stopped and solutions were stored by freezing at −20 °C. Glycated peptides were desalted by centrifugal filtration through Ultrafree-MC 5 kda or Ultracel 3 kda filter units. Resulting retentate was resuspended in low ionic strength saline immediately before performing mass spectrometry.
(§1) Each peptide was held constant at 0.1 mg/mL in pH 7.4 phosphate-buffered saline, and 100 μL aliquots were pipetted into rows of a Costar high-binding ELISA plate and incubated for an hour. The plate was washed 3× with 0.1% Tween 20 (Sigma-Aldrich) in 0.05 M phosphate buffered saline (PBS). Two hundred µL 2% polyvinyl alcohol in PBS were added to each well and incubated 1 h. The plates were then washed 3× again with 0.1% Tween 20. A solution of insulin conjugated to horse-radish peroxidase (HRP), 0.83 µg in 1.0 mL PBS, was made and serially diluted with PBS by thirds, ten times. These serial dilutions were added to the plate wells, incubated for an hour, and then washed 3× as before. Finally, 100 µL of stock ABTS [2,2′-azino-bis(3-ethylbenzothiazoline-6-sulphonic acid)] (Millipore, Burlington, MA, USA) was added to each well, incubated for thirty minutes, and the plate was then read on a SpectraMax Plus scanning microplate spectrophotometer at 405 nm. Controls wells lacking peptide but with PVA, INS-HRP and ABTS measured non-specific binding that was subtracted from the absorbance values of the rest of the wells. All experiments were run in triplicate and the averages of the corrected absorbances were then plotted against the concentration of the INS–HRP for each peptide to yield binding curves. Because binding curves are calculated by plotting differences, it was not possible to incorporate error bars into these curves.
The same technique just described in Section 4.3 was used to measure the effect of glycation on INS-HRP binding to IR peptides as above with one change: IR peptides were serially diluted instead of the INS-HRP, which was held constant. This methodological modification was made in order to reduce the amount of IR peptide required to obtain results. As in Section 4.3, each experiment was run in triplicate and the results averaged.

Assay [3] deals with T1, insulin-HRP. The assay can be described thus: Insulin-HRP binding to IR peptides (ELISA plate, ABTS read-out). The settings on record: Ins-HRP at 10 nM, IR peptide in the absence of glycation. On the procedure:
as §1

Assay [4] concerns the target insulin receptor (IR), intact recombinant, unglycated. The assay can be described thus: Insulin binding to intact unglycated insulin receptor by UV spectroscopy. The conditions noted are these: one of two independent runs. On the procedure:
(§2) Intact recombinant IR was obtained from Sigma-Aldrich (St. Louis, MO, USA) and utilized at 42.9 units/mL in phosphate buffered saline, pH 7.4 (PBS) or in PBS with 20 mM glucose added. PBS and 20 mM glucose solutions of IR were incubated for six days at 37 °C. An aliquot of each preparation was then subjected to centrifugal filtration and washing through Ultrafree-MC 5 kda or Ultracel 3 kda filter units. The resulting retentates were resuspended in PBS. In this way, identical preparations of unglycated IR and glycated IR were made in both PBS and in 20 mM gucose PBS. Microliter quantities of PBS buffer, or 20 mM glucose PBS, or human recombinant INS (Sigma-Aldrich, St. Louis, MO, USA) in PBS or 20 mM glucose PBS were then added serially to 100 µL of each of the four preparations of IR and to control wells containing only PBS or 20 mM glucose PBS. Experiments were carried out in a crystal 96-well plate and the serial combinations subjected to UV spectrophotometry to obtain their spectra. The spectra of the control wells were subtracted from the spectra of the experimental wells to yield expected values at each UV wavelength and differences between the controls and experimental values determined. […] Binding constants were determined from the concentration at which the binding curves inverted. […]

Assay [5] deals with insulin receptor (IR), intact recombinant, glycated. In words: Insulin binding to intact glycated insulin receptor by UV spectroscopy. The settings on record: IR incubated six days at 37 °C in 20 mM glucose, measured as decrease in absorbance. The method, then:
as §2

[6] abbreviates: glucose binding non-covalently to the peptide, read-out: Glucose Binding Kd.

Read-outs that look alike come from different tables or passages of the source. No end group written: not given here.

T1 sequence (P01308 90-110): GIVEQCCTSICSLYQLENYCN
T1 sequence (P01308 25-54): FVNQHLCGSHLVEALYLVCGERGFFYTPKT

In general, Kd refers to the free concentration of one partner at which half of the binding sites on the other are occupied at equilibrium, for simple one-to-one binding. For “ENCSVIEGHLQ [51-61, synthetic insulin receptor peptide, residues 51-61 of human IR, insulin-like]”, the Kd in assay [1] (setting [6]) was 52 mM. For the same substance, the “Insulin-HRP binding after incubation of the peptide in 200 mM glucose” value at insulin-HRP [2] (200 mM glucose, six days) is “nearly undetectable levels”. For the same substance, on insulin-HRP [2], the “Change of INS-HRP binding to the peptide after glycation” value (shortened to “Change of INS-HRP binding”) is given as “very significant loss of INS-HRP binding” and the “Ins-HRP Binding Inhibition (Glycated)” value was “YES”. In addition, the “Factor by which glycation reduces the insulin-HRP binding constant” value at insulin-HRP [2] (peptide incubated in 20 and 60 mM glucose over six days) is “approximately 2”. Further, at insulin-HRP [3], the “10 nM Ins-HRP Binding (Native)” value is listed as “YES”.

Take “ESEDSQKHNQSEYEDS [689-705, synthetic insulin receptor peptide, residues 689-705 of human IR]”: the equilibrium dissociation constant (Kd) in assay [1] (setting [6]) is 63 mM. At insulin-HRP [2], the “Ins-HRP Binding Inhibition (Glycated)” value is recorded as “no”. In addition, the “10 nM Ins-HRP Binding (Native)” value at insulin-HRP [3] is “no”.

“GMDIRNNLTRLHELE [37-51, synthetic insulin receptor peptide, residues 37-51 of human IR (UniProt P06213)]”: in assay [1] (setting [6]), the Kd is 40 mM. Moreover, at insulin-HRP [2], the “Ins-HRP Binding Inhibition (Glycated)” value is reported as “no”. Besides, the “10 nM Ins-HRP Binding (Native)” value at insulin-HRP [3] is listed as “no”.

Turning to H-FRVYGLESLKDLF [91-103], the Kd in assay [1] (setting [6]) is 37 mM. Moreover, at insulin-HRP [2], the “Change of INS-HRP binding” value is “very significant loss of INS-HRP binding” and the “Ins-HRP Binding Inhibition (Glycated)” value is recorded as “YES”. Also, the “10 nM Ins-HRP Binding (Native)” value at insulin-HRP [3] is listed as “YES”.

For the substance H-NLTVIRGSRLFFNY [105-118], in assay [1] (setting [6]), the Kd is 35 mM. Also, on insulin-HRP [2], the “Change of INS-HRP binding” value is on record as “very significant loss of INS-HRP binding” and the “Ins-HRP Binding Inhibition (Glycated)” value is given as “YES”. The “10 nM Ins-HRP Binding (Native)” value on insulin-HRP [3] is “YES”.

Regarding H-TIDWSRILDS [157-166], the Kd in assay [1] (setting [6]) was 57 mM. Also, on insulin-HRP [2], the “Ins-HRP Binding Inhibition (Glycated)” value is reported as “no”. Further, the “10 nM Ins-HRP Binding (Native)” value on insulin-HRP [3] is listed as “no”.

On to H-TQGKLFFHYNPK [453-464], for which the Kd in assay [1] (setting [6]) is 57 mM. The “Ins-HRP Binding Inhibition (Glycated)” value on insulin-HRP [2] is listed as “no”. In addition, on insulin-HRP [3], the “10 nM Ins-HRP Binding (Native)” value was “no”.

Regarding “HLYFGEVCPGMDIRNN [28-43, synthetic insulin receptor peptide, residues 28-43 of human IR (UniProt P06213)]”, the Kd in assay [1] (setting [6]) is 50 mM. At insulin-HRP [2], the “Ins-HRP Binding Inhibition (Glycated)” value is on record as “no”. The “10 nM Ins-HRP Binding (Native)” value on insulin-HRP [3] was “no”.

For the substance “Insulin: recombinant human insulin (Lilly for glycation; Sigma-Aldrich for IR binding)”, the Kd is 0.25 mM in assay [1] (setting [6]) and 30 mM in assay [1] (glucose binding non-covalently, second of two values printed for insulin, read-out: Glucose Binding Kd (mM), second value). Further, the “Binding constant of unglycated INS for unglycated IR in 20 mM glucose” value in assay [4] (PBS pH 7.4 with 20 mM glucose) is recorded as 110 µg/mL of INS. Moreover, the “Binding constant of unglycated INS for unglycated IR in PBS” value in assay [4] (PBS pH 7.4 without glucose, concentration at which the binding curve inverted) is 70 µg/mL of INS. Moreover, the “Decrease in amount of INS binding due to glycation of the IR, in 20 mM glucose” value in assay [5] (binding in PBS with 20 mM glucose) is listed as “one third”. Besides, the “Decrease in amount of INS binding due to glycation of the IR, in PBS” value in assay [5] (binding in PBS without glucose) is listed as “one third”.

Take “KTFEDYLHNVVFV [730-742, synthetic insulin receptor peptide, residues 730-742 of human IR]”: in assay [1] (setting [6]), the Kd was 60 mM. Besides, the “Ins-HRP Binding Inhibition (Glycated)” value on insulin-HRP [2] is on record as “no”. Also, the “10 nM Ins-HRP Binding (Native)” value on insulin-HRP [3] is recorded as “no”.

Source of the values: paper PMC5751205, “Rapid Non-Enzymatic Glycation of the Insulin Receptor under Hyperglycemic Conditions Inhibits Insulin Binding In Vitro: Implications for Insulin Resistance” (International Journal of Molecular Sciences, 2017).
